In assay [1] the test system is human bronchial epithelial cells. The experiment in a line: Effect of culture media calcium content on cell behavior. It counts as cell-based. The settings on record: 1 mM CaCl2 in KSFM plus A83-01 and Y-27632. The method, then:
Effects of culture media calcium content on cell behavior were assessed for epithelial cells cultured in KSFM plus A83-01 and Y-27632. Human bronchial epithelial cells were grown KSFM (with 90 μM CaCl2) plus A83-01 and Y-27632. These cells dispersed throughout the culture vessel (FIG. 28, left panel), and few cells formed intercellular connections, even when they were in close proximity to each other. […] Cells in the center of the patches tended to pile up, and boundaries between individual cells generally were not discernable. In certain instances, abnormal elongations formed between clusters.

The subject of assay [2] is bronchial epithelial cells. The experiment in a line: Trans-epithelium electric resistance (TEER) of bronchial epithelial cells on […]. Format: cell-based, human. As for the experimental part:
In a further investigation, effects of culture media calcium content on intercellular junctions was assessed for bronchial epithelial cells cultured in KSFM plus A83-01 and Y-27632. Intercellular junctions were assessed according to paracellular flow of ions as measured by trans-epithelium electric resistance (TEER). […] Bronchial epithelial cells were plated on porous membrane support ([…], Corning, 354474) and maintained for 7 days when the membrane was covered with culture medium (submerged phase, grayed box in FIG. 29, top panel). On day 8, the medium was removed from the apical side of the membrane, and the cells were exposed to air to induce further differentiation. Further, as shown in FIG. 29 (bottom panel), bronchial epithelial cells established increasing transmembrane electric resistance (TEER) over time in the presence of high concentration (1 mM) of CaCl2 in KSFM plus A 83-01 and Y-27632. Bronchial epithelial cells were plated on a porous membrane support ([…], Corning, 354474) and maintained for 24 days, with the membrane covered by culture medium for the duration of the culture. Trans-epithelium electric resistance (TEER) remained at a high level throughout the culture period.

In assay [3] the test system is human bronchial epithelial cells (HBEC) and human foreskin keratinocytes (HFK). The experiment in a line: Dome-like structure formation at high CaCl2. It counts as cell-based. The settings on record: CaCl2 raised to 1.5 mM in KSFM+A+Y, 7 to 10 days. The method, then:
Dome-like structures formed in keratinocyte and bronchial epithelial cell cultures in the presence of high concentration of CaCl2. Specifically, late passage human bronchial epithelial cells (HBEC) and late passage human foreskin keratinocytes (HFK) cultured in KSFM supplemented with 1 μM A 83-01 and 5 μM Y-27632 (KSFM+A+Y) at low CaCl2 (90 μM) were allowed to reach confluence in 6-well plates. The cells remained in the KSFM+A+Y conditions and the CaCl2 concentration was raised to 1.5 mM to induce differentiation of the epithelial cells.

Assay [4] has as its system human foreskin keratinocytes (HFK). The experiment in a line: Tight junction formation, ZO-1 immunofluorescence. The settings on record: CaCl2 raised to 1.5 mM in KSFM+A+Y. It counts as cell-based. As for the experimental part: Specifically, late passage human foreskin keratinocytes (HFK) cultured in KSFM supplemented with 1 μM A83-01 and 5 μM Y-27632 (KSFM+A+Y) at low CaCl2 (90 μM) were allowed to reach confluence. The cells remained in the KSFM+A+Y conditions and the CaCl2 concentration was raised to 1.5 mM to induce differentiation.

For assay [5] the test system is unchanged. The experiment in a line: TEER in air-liquid-interface differentiation of keratinocytes. It counts as cell-based. The settings on record: 1.5 mM CaCl2 in KSFM+A+Y, 14 days. As for the experimental part: Keratinocytes established increasing transmembrane electric resistance (TEER) over time in air-liquid-interface differentiation, in the presence of high concentration (1.5 mM) of CaCl2 in KSFM plus A 83-01 and Y-27632. Specifically, human foreskin keratinocytes (HFK) previously cultured in KSFM supplemented with 1 μM A83-01 and 5 μM Y-27632 (KSFM+A+Y) at low CaCl2 (90 μM) were plated on a porous membrane support ([…], Corning, 354474) and maintained for 14 days. The cells were covered by culture medium (KSFM+A+Y and 1.5 mM of CaCl2) for the first day (submerged phase, grayed box in FIG. 34) and exposed to air for the remaining days.

Assay [6] shares this test system. Kind of assay: Epidermal-like structure in air-liquid-interface differentiation (H&E). It counts as cell-based. The settings on record: 1.5 mM CaCl2 in KSFM+A+Y, day 14. As for the experimental part:
Keratinocytes formed an epidermal-like structure over time in air-liquid-interface differentiation, in the presence of high concentration (1.5 mM) of CaCl2 in KSFM plus A 83-01 and Y-27632. Specifically, human foreskin keratinocytes (HFK) previously cultured in KSFM supplemented with 1 μM A83-01 and 5 μM Y-27632 (KSFM+A+Y) at low CaCl2 (90 μM) were plated on a porous membrane support ([…], Corning, 354474) and maintained for 14 days. The cells were covered by culture medium (KSFM+A+Y and 1.5 mM of CaCl2) for the first day and exposed to air for the remaining days. At the end of experiment (i.e., on day 14), the culture was fixed in 4% paraformaldehyde, embedded in paraffin and sectioned for haematoxylin and eosin staining (H&E) to reveal its structure.

Assay [7] has as its system CD4+ and CD8+ T cells (human PBMCs). Kind of assay: T cell proliferation, Cell Trace CFSE stained PBMCs with PHA co-incubated with hAECs. Format: cell-based. As to conditions: 48 hour preincubation of hAECs with interferon γ 100 ng/ml. An excerpt: Human Peripheral Blood Mononuclear Cells (PBMCs) were isolated and stained with Cell Trace CFSE (Thermo Fisher Scientific). Cell Trace CFSE is a cell permeable amine reactive fluorescent dye that non-specifically labels intracellular proteins. Through subsequent cell divisions each daughter cell receives approximately half of the label allowing for determination of the intensity of fluorescence by flow cytometry and correlation to the number of cell divisions. Cell Trace CFSE stained PBMCs were added to ˜80% confluent monolayers of hAECs from Donor 1 (P4) and Donor 2 (P4) expanded in KSFM A+Y. Upon addition of the stained PMBCs the media was changed to RPMI media with 10% FBS and 5 μg/ml phytohaemagglutinin (PHA). PHA is a potent mitotic agent used to activate and stimulate proliferation of lymphocytes. The expanded hAECs were used directly from growth conditions or after a 48 hour preincubation with Interferon γ (100 ng/ml; Thermo Fisher Scientific). This treatment can increase the immunosuppressive effect of hAECs. […] The degree of inhibition of proliferation was calculated by determining the number of cells that proliferated in the presence of hAECs relative to the number of cells that proliferated when exposed to PHA treatment alone (FIG. 45D). […]

A further assay relates to hAECs. The experiment in a line: Effect of interferon γ on immunomodulatory gene expression in hAECs (qRT-PCR). Format: cell-based, human. The settings on record: 100 ng/mL, 48 hours. As for the experimental part: In certain instances, treatment of hAECs with interferon γ (INFγ) leads to an upregulation of genes involved in immune suppression. However, cultured hAECs typically lose their functional phenotype (see e.g., cells tested at passage 5 in Pratama et al. 2011 PLoS ONE 6(11): e26136). In this example, hAECs isolated from two different donors (Donor 1 and Donor 2), were tested for their response to INFγ both in KSFM A+Y and after removal from growth conditions and placement into standard hAEC media (DMEM:F12 10% FBS). Cells from both donors grown in KSFM A+Y at passage 4 at ˜80% confluence were either kept in KSFM A+Y, changed to KSFM A+Y+100 ng/mL INFγ, or changed to DMEM:F12+/−100 ng/mL INFγ. The cells were left for an additional 48 hours in each condition. qRT-PCR was used to examine expression levels of HLA-G, Indoleamine 2,3-dioxygenase (IDO), and Programmed Death Ligand 1 (PD-L1) (see FIGS. 46A-46D).
HLA-G can have a wide variety of immunomodulatory effects on numerous immune cells. Expression of HLA-G is generally considered a prominent feature of hAECs, and often is lost during expansion in culture. […] IDO is the first and rate-limiting enzyme of tryptophan catabolism through the kynurenine pathway, thus causing depletion of tryptophan which can inhibit T cell proliferation. […] PD-L1 may play a major role in immune suppression, inhibiting the proliferation and inducing apoptosis of T cells.

As for `[Ca+2].[Cl-].[Cl-]` [CaCl2], in assay [1], the cell behavior entry is given as “aggregate into tight clusters”. Also, the “intercellular junctions (TEER)” value in assay [2] (high concentration (1 mM) in KSFM plus A 83-01 and Y-27632) is given as “established tight intercellular junctions”; in assay [2] (low concentration (90 μM) in KSFM plus A 83-01 and Y-27632), “failed to establish tight intercellular junctions”. For the same molecule, in assay [3], the dome-like structure formation entry was “Many dome-like structures were formed”. In assay [4], the “tight junction formation (ZO-1)” value is recorded as “Tight junction formation was observed”. In assay [5], the “trans-epithelium electric resistance (TEER)” value is “reached very high levels”. Besides, in assay [6], the epidermal-like structure formation result is “differentiated into multi-layer structures”.

B1: interferon γ: Interferon γ (100 ng/ml; Thermo Fisher Scientific) (protein, UniProt P01579 24-161, looked up)
Interferon gamma: QDPYVKEAENLKKYFNAGHSDVADNGTLFLGILKNWKEESDRKIMQSQIVSFYFKLFKNFKDDQSIQKSVETIKEDMNVKFFNSNKKKRDDFEKLTNYSVTDLNVQRKAIHELIQVMAELSPAAKTGKRKRSQMLFRG
For the molecule B1, in assay [7], the “inhibition of T cell proliferation by hAECs” value was “increased”. In the assay with hAECs, the IDO expression entry is listed as “increases dramatically” and the PD-L1 expression result is recorded as “dramatic increase in expression”. In addition, the HLA-G expression result with hAECs (after moving cells to standard media (DMEM:F12)) was “greatly increased”.

These data come from patent US10100285B2, “Ex vivo proliferation of epithelial cells” (PROPAGENIX INC., priority 2015, dated 2018).
